# Assay results reported in patent US9650616B2, “Methods for increasing grain yield” (University of Florida Research Foundation, Inc., priority 2014, dated 2017).
# Residue numbers refer to the chain shown, from its start.
# Experiments:
# [1] = molecular target: T1, maize endosperm AGPase, large subunit variant GGR (Q96G, D161G, A443R; numbering of SEQ ID NO: 20) (Zea mays, UniProt P55241+Q84PF5, A443R/D161G/Q96G); experiment: Pi inhibition in the presence of 3-PGA, GGR; assay type: biochemical; settings: read-out: Km (ATP), presence of 3-PGA, ATP varied, Pi inhibition, L-MT
# T1 sequence (P55241 46-516 A443R/D161G/Q96G): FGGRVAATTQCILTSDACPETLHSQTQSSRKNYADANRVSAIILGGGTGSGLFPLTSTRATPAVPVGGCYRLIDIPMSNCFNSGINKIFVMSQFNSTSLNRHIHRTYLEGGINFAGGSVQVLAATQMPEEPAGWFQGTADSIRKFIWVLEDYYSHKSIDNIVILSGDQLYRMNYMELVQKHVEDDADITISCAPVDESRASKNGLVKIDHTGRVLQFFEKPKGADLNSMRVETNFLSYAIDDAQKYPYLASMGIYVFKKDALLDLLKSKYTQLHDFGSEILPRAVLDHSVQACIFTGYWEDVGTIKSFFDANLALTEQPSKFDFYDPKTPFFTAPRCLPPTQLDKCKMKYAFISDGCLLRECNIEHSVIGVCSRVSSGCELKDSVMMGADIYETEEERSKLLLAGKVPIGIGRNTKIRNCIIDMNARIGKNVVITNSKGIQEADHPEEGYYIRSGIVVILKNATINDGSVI
# T1 sequence (Q84PF5 1-474): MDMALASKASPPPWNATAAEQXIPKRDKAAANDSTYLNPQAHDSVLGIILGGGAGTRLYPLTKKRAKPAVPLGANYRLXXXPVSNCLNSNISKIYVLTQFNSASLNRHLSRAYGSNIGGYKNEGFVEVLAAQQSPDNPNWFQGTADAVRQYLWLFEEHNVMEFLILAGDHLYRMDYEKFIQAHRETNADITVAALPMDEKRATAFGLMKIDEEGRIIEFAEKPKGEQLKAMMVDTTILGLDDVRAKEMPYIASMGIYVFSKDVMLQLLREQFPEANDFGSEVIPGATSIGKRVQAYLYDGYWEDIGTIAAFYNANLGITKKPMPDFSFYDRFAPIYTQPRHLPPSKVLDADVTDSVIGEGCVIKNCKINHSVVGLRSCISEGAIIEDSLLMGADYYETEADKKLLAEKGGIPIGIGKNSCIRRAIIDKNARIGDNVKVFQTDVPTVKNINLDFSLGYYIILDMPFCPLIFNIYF
# Text: Inhibition by Pi was then followed in the presence of the activator 3-PGA.
# [2] = molecular target: T2, maize endosperm AGPase, large subunit variant GGRV (Q96G, D161G, A443R, I285V; numbering of SEQ ID NO: 20) (Zea mays, UniProt P55241+Q84PF5, A443R/D161G/I285V/Q96G); experiment: Apparent kinetic constants with 3-PGA, 37° C., GGRV; assay type: biochemical; settings: read-out: ATP Km
# T2 sequence (P55241 46-516 A443R/D161G/I285V/Q96G): T1 sequence (P55241 46-516 A443R/D161G/Q96G) with I240V
# T2 sequence (Q84PF5 1-474): T1 sequence (Q84PF5 1-474)
# Text: The small and large subunit plasmids of maize endosperm AGPase (pMONcBt2 and pMONcSh2, respectively) (Giroux et al., 1996) were expressed in E. coli AC70R1-504 cells (Iglesias et al., 1993) as previously described (Boehlein et al., 2008).
# An endpoint assay was used to determine the rate of the AGPase reaction by coupling the formation of PPi to a decrease in NADH concentration (Boehlein et al., 2008). […] The Michaelis constants (Km) were obtained by varying one substrate in the presence of saturating concentrations of the second substrate. The activation constants were obtained by varying the activator at fixed levels of both substrates. All reactions were performed at 37° C. and mixes were prewarmed before starting the reaction with enzyme. […] The absorbance at 340 nm was monitored after 30 min and the amount of PPi produced was determined from a standard curve using PPi in complete reaction mixtures lacking AGPase. Blank samples contained complete reaction mixtures without enzyme and the change in absorbance between the blank and the reaction was used to calculate the amount of PPi produced. […]
# The apparent Michaelis constant and maximum velocity of each reaction was calculated from a V vs. S plots using nonlinear regression analysis and the following equation, v=VmaxS/(Km+S), where v is the measured velocity, Vmax is the maximum velocity, S is the substrate concentration. […]
# [3] = system: maize endosperm AGPase, heat stable ISM mutants; experiment: Apparent kinetic constants with 3-PGA, 37° C., ISM mutants collectively; assay type: biochemical, Zea mays; settings: mutants versus wt maize, in the presence of 3-PGA
# Protocol: An endpoint assay was used to determine the rate of the AGPase reaction by coupling the formation of PPi to a decrease in NADH concentration (Boehlein et al., 2008). […] The Michaelis constants (Km) were obtained by varying one substrate in the presence of saturating concentrations of the second substrate. The activation constants were obtained by varying the activator at fixed levels of both substrates. All reactions were performed at 37° C. and mixes were prewarmed before starting the reaction with enzyme. Reactions were terminated by boiling the reaction mixes for 2 minutes followed by development with 200 μl of coupling reagent (25 mM imidazole pH 7.4, 4 mM MgCl2, 1 mM EDTA, 0.2 mM NADH, 0.725 U aldolase, 0.4 U triose phosphate isomerase, 0.6 U glycerophosphate dehydrogenase, 1 mM fructose 6-phosphate and 0.8 μg purified PPi-PFK per reaction). The absorbance at 340 nm was monitored after 30 min and the amount of PPi produced was determined from a standard curve using PPi in complete reaction mixtures lacking AGPase. Blank samples contained complete reaction mixtures without enzyme and the change in absorbance between the blank and the reaction was used to calculate the amount of PPi produced. Reactions were linear with time and enzyme concentration.
# The apparent Michaelis constant and maximum velocity of each reaction was calculated from a V vs. S plots using nonlinear regression analysis and the following equation, v=VmaxS/(Km+S), where v is the measured velocity, Vmax is the maximum velocity, S is the substrate concentration. The activation constant (Ka) was obtained using the following equation: V=Vmin+Vmax*(X)/(Ka+X), where Vmin is the velocity in the absence of activator and Vmax is the change in activity from Vmin to the total velocity. X is the activator concentration, Ka is the activation constant. All linear regression was carried out using the software program Prism (Graph Pad, San Diego Calif.).
# Each mutant, comprising 1, 2, 3 or 4 changes, was grown in a large scale culture, expressed and purified according to standard procedures (Boehlein et al., 2005). […] Thus, the effects of these mutations on the kinetic constants are minimal. Next, the activation constant, Ka, was determined for each of the mutant enzymes. Here a decrease in the Ka for each of the mutants of approximately 3-6 fold was observed. This property appears to stem from the D161G change, and includes all enzymes which carry this mutation (Table 8). To be certain the effect is the result of the D161G mutation, and not the result of other single mutant changes, Q96R and Q96G were purified and characterized.
# [4] = system: maize endosperm AGPase, evolutionary mutant SH2-E (SH2E); settings: absence of 3-PGA, ATP varied, Pi inhibition, NC, read-out: Km (ATP); cited from earlier work
compound,measurement,setting,value
Nc1ncnc2c1ncn2[C@@H]1O[C@H](COP(=O)(O)OP(=O)(O)OP(=O)(O)O)[C@@H](O)[C@H]1O [ATP],Km,[1],110 µM
same,Km,[2],46 µM
same,largest variation in Km,[3],approximately two-fold
same,Km,[4],970 µM
